Tests used:
[1] = system: H2O2 induced pAkt in D-U937 cells; test: PI3Kδ Cell Based Assay (H2O2 induced pAkt); conditions: Homo sapiens, dU937; activity range; D-U937 cells; read-out: Cellular Activity IC50 values (H2O2 induced pAkt D-U937 Cells)
Protocol: As a means of assessing PI3K 6 activation in response to stimuli, the phosphorylation status of the protein, Akt, a downstream product of PI3K6, signaling was determined. Human monocytic cells (U937 cells), were differentiated to macrophage-type cells by incubation with phorbol myristate acetate (PMA; 100 ng/mL) for 48 to 72 hr. […] The cells were washed with buffer (PBS containing 0.1% Triton X-100) and were incubated with blocking solution (1% BSA in PBS) for 1 hr and were then re-washed with buffer and incubated overnight with either anti-pAkt antibody or anti-pan-Akt antibody (both from Cell Signaling Technology). […] This reaction was stopped by addition of 100 μL of 1N H2SO4 solution. […] The ratio of pAkt signal to total Akt signal was used to quantitate the extent of PI3K δ activation. […] The IC50 values were calculated from the concentration-response curves generated by the serial dilutions of the test compounds (Table 3 and Table 4).

[2] = system: PMA-differentiated U937 cells; test: MTT Assay (cell viability); assay type: cell-based, Human; conditions: percentage loss of cell viability; for Cell Viability MTT Assay in D-U937 cells at 4 hr: 4 hr in 5% FCS; for Cell Viability MTT Assay in D-U937 cells at 24 hr: 24 hr in 10% FCS
Protocol: PMA-differentiated U937 cells were pre-incubated with compound for 4 hr in 5% FCS or 10% FCS for 24 hr. The supernatant was replaced with 200 μL of new media and 10 μL of MTT stock solution (5 mg/ml) added to each well. After 1 hr incubation, the media were removed, 200 μL of DMSO added to each well and the plates were shaken lightly for 1 hr prior to reading the absorbance at 550 nm. The percentage loss of cell viability was calculated for each well relative to vehicle (0.5% DMSO)-treatment (Table 3).

recombinant PI3 kinase δ = recombinant PI3 kinase δ (Homo sapiens (Human), UniProt O00329); test: Enzyme Inhibition Assay (HTRF PI3K enzyme assay, TR-FRET); assay type: biochemical; conditions: activity range; read-out: PI3 Kinase Inhibition IC50 values at stated Isozyme δ
recombinant PI3 kinase δ, sequence (O00329 whole entry): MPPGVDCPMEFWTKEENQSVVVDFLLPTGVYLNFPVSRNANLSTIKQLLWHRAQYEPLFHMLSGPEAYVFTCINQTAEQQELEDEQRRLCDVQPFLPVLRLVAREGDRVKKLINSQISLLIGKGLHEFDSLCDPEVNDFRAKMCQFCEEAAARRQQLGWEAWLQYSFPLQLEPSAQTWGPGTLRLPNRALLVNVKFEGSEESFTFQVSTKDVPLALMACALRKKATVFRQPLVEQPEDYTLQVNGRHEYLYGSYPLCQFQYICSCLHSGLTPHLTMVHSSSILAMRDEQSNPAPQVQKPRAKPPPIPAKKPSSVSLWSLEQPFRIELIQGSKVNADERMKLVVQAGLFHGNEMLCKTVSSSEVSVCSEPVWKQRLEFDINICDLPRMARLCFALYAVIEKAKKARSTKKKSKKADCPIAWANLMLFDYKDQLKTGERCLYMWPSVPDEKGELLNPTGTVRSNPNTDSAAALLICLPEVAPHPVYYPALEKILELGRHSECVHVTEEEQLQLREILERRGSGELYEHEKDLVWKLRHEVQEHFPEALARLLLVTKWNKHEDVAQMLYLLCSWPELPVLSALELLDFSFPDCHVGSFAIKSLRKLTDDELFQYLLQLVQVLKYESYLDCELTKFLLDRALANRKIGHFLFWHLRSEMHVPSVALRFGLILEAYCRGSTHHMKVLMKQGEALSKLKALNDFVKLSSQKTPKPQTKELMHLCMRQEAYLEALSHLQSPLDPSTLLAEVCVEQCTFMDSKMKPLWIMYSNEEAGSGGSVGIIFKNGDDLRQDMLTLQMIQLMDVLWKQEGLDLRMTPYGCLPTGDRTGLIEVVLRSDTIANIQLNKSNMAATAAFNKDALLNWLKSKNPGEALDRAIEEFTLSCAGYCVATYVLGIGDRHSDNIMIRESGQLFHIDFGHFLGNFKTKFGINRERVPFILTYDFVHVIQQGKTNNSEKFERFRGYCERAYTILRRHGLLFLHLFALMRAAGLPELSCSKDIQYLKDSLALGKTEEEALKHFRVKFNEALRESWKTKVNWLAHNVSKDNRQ
recombinant PI3 kinase δ, sequence (P27986 whole entry partner): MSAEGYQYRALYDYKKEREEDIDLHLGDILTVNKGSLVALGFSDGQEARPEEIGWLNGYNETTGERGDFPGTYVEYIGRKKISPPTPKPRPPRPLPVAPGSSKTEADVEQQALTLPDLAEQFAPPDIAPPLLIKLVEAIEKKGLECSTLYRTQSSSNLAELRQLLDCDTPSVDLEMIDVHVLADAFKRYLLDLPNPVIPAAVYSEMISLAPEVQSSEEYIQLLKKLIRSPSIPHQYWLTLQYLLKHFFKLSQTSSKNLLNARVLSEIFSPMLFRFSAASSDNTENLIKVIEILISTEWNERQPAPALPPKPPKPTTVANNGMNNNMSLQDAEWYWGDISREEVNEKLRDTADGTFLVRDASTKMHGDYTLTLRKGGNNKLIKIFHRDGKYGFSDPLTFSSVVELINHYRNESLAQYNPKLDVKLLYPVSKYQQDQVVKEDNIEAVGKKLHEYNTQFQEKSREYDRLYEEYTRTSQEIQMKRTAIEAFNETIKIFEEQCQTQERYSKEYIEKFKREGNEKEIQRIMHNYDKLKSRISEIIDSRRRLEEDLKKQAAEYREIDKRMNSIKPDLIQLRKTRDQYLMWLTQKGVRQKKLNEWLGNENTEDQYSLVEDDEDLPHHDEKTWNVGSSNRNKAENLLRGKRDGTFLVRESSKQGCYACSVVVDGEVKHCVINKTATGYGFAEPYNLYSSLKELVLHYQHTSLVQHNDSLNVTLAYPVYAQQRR
From the text: (§1) PI3 kinases catalyse the phosphorylation of phosphatidylinositol 4,5-biphosphate (PIP2) to phosphatidylinositol 3,4,5-triphosphate (PIP3) in the presence of ATP and Mg^2+ ions. The PIP3 product can be detected by displacement of biotin-PIP3 from energy transfer complexes consisting of europium labelled anti-GST monoclonal antibody, a GST-tagged Pleckstrin homology (PH) domain, biotinylated PIP3 and streptavidin-allophycocyanin (APC) by the time-resolved fluorescence resonance energy transfer (TR-FRET) (HTRF® PI3K enzyme assay, Millipore). […] The PIP3 product formed by PI3K activity displaces biotin-PIP3 from the complex and results in a loss of energy transfer (decreasing signal).
(§2) The compound to be tested was added, at the desired final concentrations, to a mixture of PIP2 substrate and recombinant PI3 kinase α, δ or γ enzymes (Millipore), and the mixture incubated for 2 hr at RT. […] A stopping solution containing biotinylated PIP3 and the detection mix containing the GST tagged GRP1 pleckstrin homology (PH) domain and fluorophores were then added and the mixture was incubated at RT for 15-18 hr, prior to detection in a fluorescence microplate reader (Varioskan® Flash, ThermoFisher Scientific).

recombinant PI3 kinase α = recombinant PI3 kinase α (Homo sapiens (Human), UniProt P42336); test: as above; assay type: biochemical; conditions: activity range; read-out: PI3 Kinase Inhibition IC50 values at stated Isozyme α
recombinant PI3 kinase α, sequence (P42336 whole entry): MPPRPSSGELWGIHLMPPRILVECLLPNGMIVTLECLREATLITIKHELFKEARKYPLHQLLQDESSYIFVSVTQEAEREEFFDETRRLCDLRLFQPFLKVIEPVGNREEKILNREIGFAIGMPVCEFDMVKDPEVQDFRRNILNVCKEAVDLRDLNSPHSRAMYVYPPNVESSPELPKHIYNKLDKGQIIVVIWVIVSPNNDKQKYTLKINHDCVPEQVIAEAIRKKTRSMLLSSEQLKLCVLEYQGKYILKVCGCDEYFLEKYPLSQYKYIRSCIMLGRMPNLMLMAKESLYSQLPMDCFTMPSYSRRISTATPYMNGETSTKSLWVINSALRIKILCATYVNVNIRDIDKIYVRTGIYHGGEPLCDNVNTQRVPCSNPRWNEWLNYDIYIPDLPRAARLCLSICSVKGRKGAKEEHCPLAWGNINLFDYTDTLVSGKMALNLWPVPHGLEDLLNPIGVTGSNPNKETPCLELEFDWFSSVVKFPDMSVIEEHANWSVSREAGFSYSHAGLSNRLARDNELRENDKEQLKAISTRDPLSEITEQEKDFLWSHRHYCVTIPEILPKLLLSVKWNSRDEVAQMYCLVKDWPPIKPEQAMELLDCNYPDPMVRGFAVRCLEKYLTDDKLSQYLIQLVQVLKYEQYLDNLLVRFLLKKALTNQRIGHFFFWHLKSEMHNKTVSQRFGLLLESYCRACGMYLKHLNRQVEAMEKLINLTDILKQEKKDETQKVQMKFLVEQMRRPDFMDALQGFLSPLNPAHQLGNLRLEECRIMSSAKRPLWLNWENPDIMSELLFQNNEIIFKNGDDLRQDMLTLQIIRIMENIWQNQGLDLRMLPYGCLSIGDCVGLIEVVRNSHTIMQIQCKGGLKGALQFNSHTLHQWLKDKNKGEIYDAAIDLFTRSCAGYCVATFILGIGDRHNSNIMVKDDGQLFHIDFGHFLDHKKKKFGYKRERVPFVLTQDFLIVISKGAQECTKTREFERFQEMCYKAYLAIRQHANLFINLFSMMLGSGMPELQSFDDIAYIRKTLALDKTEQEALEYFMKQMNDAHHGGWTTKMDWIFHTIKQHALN
recombinant PI3 kinase α, sequence (P27986 whole entry partner): as the sequence (P27986 whole entry partner) above
From the text: as §1, §2

recombinant PI3 kinase γ = recombinant PI3 kinase γ (Homo sapiens (Human), UniProt P48736); test: as above; assay type: biochemical; conditions: activity range; read-out: PI3 Kinase Inhibition IC50 values at stated Isozyme γ
recombinant PI3 kinase γ, sequence (P48736 whole entry): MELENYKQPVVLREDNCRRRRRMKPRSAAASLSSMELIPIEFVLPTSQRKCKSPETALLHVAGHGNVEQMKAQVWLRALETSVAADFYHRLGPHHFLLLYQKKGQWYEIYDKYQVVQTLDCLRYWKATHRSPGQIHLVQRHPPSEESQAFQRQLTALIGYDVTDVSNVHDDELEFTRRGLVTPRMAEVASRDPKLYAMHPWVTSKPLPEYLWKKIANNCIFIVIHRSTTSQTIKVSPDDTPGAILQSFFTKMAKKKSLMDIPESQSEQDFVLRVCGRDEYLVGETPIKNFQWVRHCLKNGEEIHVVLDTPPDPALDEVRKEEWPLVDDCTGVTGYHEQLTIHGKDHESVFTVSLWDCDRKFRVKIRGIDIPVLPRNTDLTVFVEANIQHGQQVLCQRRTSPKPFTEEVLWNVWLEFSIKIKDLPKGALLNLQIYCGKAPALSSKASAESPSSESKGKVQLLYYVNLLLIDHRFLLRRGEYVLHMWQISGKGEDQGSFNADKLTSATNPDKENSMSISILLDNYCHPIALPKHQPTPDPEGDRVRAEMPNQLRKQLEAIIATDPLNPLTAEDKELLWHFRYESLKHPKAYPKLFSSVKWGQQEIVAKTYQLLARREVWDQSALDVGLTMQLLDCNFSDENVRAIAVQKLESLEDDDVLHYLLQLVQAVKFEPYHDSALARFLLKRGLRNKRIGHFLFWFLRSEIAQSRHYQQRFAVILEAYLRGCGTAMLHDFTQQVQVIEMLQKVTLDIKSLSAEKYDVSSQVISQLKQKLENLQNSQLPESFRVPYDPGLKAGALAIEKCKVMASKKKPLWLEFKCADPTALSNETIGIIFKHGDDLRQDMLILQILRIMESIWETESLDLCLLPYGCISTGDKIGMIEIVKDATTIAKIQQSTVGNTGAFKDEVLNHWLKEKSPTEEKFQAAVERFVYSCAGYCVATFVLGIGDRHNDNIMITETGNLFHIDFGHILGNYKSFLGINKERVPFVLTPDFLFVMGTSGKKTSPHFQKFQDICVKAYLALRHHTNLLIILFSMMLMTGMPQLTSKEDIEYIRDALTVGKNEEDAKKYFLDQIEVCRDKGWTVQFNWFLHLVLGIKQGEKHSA
From the text: as §1, §2

Compound	IC50 [1] [nM]	IC50 (recombinant PI3 kinase δ) [nM]	IC50 (recombinant PI3 kinase α) [nM]	IC50 (recombinant PI3 kinase γ) [nM]	Cell Viability MTT Assay in D-U937 cells at 4 hr [2]	Cell Viability MTT Assay in D-U937 cells at 24 hr [2]
Nc1ncnc2c1c(-c1cccc(O)c1)nn2Cc1nc2cccc(C#CCCCCC(=O)O)c2c(=O)n1Cc1ccccc1Cl [Example 60, 7-(2-((4-Amino-3-(3-hydroxyphenyl)-1H-pyrazolo[3,4-d]pyrimidin-1-yl)methyl)-3-(2-chlorobenzyl)-4-oxo-3,4-dihydroquinazolin-5-yl)hept-6-ynoic acid]	< 10	< 50	50 to 1000	< 50	− (− <30%)	− (− <30%)
Nc1ncnc2c1c(-c1cccc(O)c1)nn2Cc1nc2cccc(C#CCCCC(=O)N3CCOCC3)c2c(=O)n1Cc1ccc2occc2c1 [Example 67, 2-((4-Amino-3-(3-hydroxyphenyl)-1H-pyrazolo[3,4-d]pyrimidin-1-yl)methyl)-3-(benzofuran-5-ylmethyl)-5-(6-morpholino-6-oxohex-1-yn-1-yl)quinazolin-4(3H)-one]	< 10	< 50	50 to 1000	< 50	− (− <30%)	− (− <30%)
C#Cc1cccc2nc(Cn3nc(-c4ccc(O)cc4)c4c(N)ncnc43)n(Cc3ccc(Cl)c(Cl)c3)c(=O)c12 [Example 43, 2-((4-Amino-3-(4-hydroxyphenyl)-1H-pyrazolo[3,4-d]pyrimidin-1-yl)methyl)-3-(3,4-dichlorobenzyl)-5-ethynylquinazolin-4(3H)-one]	< 10	< 50	50 to 1000	50 to 1000	− (− <30%)	− (− <30%)

Second part, led by results:

IC50 [1] [nM]	IC50 (recombinant PI3 kinase δ) [nM]	IC50 (recombinant PI3 kinase α) [nM]	IC50 (recombinant PI3 kinase γ) [nM]	Compound	Cell Viability MTT Assay in D-U937 cells at 4 hr [2]	Cell Viability MTT Assay in D-U937 cells at 24 hr [2]
< 10	< 50	50 to 1000	< 50	Nc1ncnc2c1c(-c1ccc(O)cc1)nn2Cc1nc2cccc(C#CCCCC(=O)NCCN3CCOCC3)c2c(=O)n1Cc1ccccc1Cl [Example 76, 6-(2-((4-Amino-3-(4-hydroxyphenyl)-1H-pyrazolo[3,4-d]pyrimidin-1-yl)methyl)-3-(2-chlorobenzyl)-4-oxo-3,4-dihydroquinazolin-5-yl)-N-(2-morpholinoethyl)hex-5-ynamide]	− (− <30%)	− (− <30%)
< 10	< 50	50 to 1000	< 50	COCCN(CCCC#Cc1cccc2nc(Cn3nc(-c4ccc(O)cc4)c4c(N)ncnc43)n(Cc3ccccc3Cl)c(=O)c12)CCOC [Example 73, 2-((4-Amino-3-(4-hydroxyphenyl)-1H-pyrazolo[3,4-d]pyrimidin-1-yl)methyl)-5-(5-(bis(2-methoxyethyl)amino)pent-1-ynyl)-3-(2-chlorobenzyl)quinazolin-4(3H)-one]	− (− <30%)	− (− <30%)
< 10	< 50	50 to 1000	< 50	Cc1nc(Cn2c(Cn3nc(-c4cccc(O)c4)c4c(N)ncnc43)nc3cccc(C#CCCCC(=O)N4CCOCC4)c3c2=O)cs1 [Example 68, 2-((4-Amino-3-(3-hydroxyphenyl)-1H-pyrazolo[3,4-d]pyrimidin-1-yl)methyl)-3-((2-methylthiazol-4-yl)methyl)-5-(6-morpholino-6-oxohex-1-yn-1-yl)quinazolin-4(3H)-one]	− (− <30%)	− (− <30%)
< 10	< 50	50 to 1000	< 50	COCCN(CCOC)C(=O)CCCC#Cc1cccc2nc(Cn3nc(-c4ccc(O)cc4)c4c(N)ncnc43)n(Cc3ccccc3Cl)c(=O)c12 [Example 82, 6-(2-((4-Amino-3-(4-hydroxyphenyl)-1H-pyrazolo[3,4-d]pyrimidin-1-yl)methyl)-3-(2-chlorobenzyl)-4-oxo-3,4-dihydroquinazolin-5-yl)-N,N-bis(2-methoxyethyl)hex-5-ynamide]	− (− <30%)	− (− <30%)

— patent US9321773B2, “Compounds” (Respivert Ltd, priority 2009, dated 2016)
